Laboratory results taken from ChEMBL document CHEMBL1201862, “PubChem BioAssay data set” (2004).
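Five compound concentrations were applied to cells in 96-well plates for 48 hours; endpoints were derived by simple linear interpolation of the resulting dose-response curve. Here, GI50 denotes the concentration required for 50% inhibition of growth.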 The source made the active and inactive calls. Cut-off read from the data, not from the text of the source: active = GI50 up to about 1.1 µM and inactive = higher.

Experiments:
Experiment in all cases: NCI tumour cell line growth inhibition, 48 h
IGROV-1 = test system: IGROV-1
HOP-92 = test system: HOP-92
SK-OV-3 = test system: SK-OV-3
OVCAR-3 = test system: OVCAR-3
NCI-H23 = test system: NCI-H23
EKVX = test system: EKVX
CCRF-CEM = test system: CCRF-CEM
A549 = test system: A549
SR = test system: SR
MCF7 = test system: MCF7
SNB-75 = test system: SNB-75
PC-3 = test system: PC-3
OVCAR-8 = test system: OVCAR-8
NCI/ADR-RES = test system: NCI/ADR-RES
SF-539 = test system: SF-539
HL-60 = test system: HL-60
SW-620 = test system: SW-620
HCC 2998 = test system: HCC 2998
BT-549 = test system: BT-549
MOLT-4 = test system: MOLT-4

Row | Structure (SMILES) | GI50 (IGROV-1) | GI50 (HOP-92) | GI50 (SK-OV-3) | GI50 (OVCAR-3) | GI50 (NCI-H23) | GI50 (EKVX) | GI50 (CCRF-CEM) | GI50 (A549) | GI50 (SR) | GI50 (MCF7) | GI50 (SNB-75) | GI50 (PC-3) | GI50 (OVCAR-8) | GI50 (NCI/ADR-RES) | GI50 (SF-539) | GI50 (HL-60) | GI50 (SW-620) | GI50 (HCC 2998) | GI50 (BT-549) | GI50 (MOLT-4)
1 | O=C(CCc1ccc(O)c(O)c1)NCCc1cc(O)c(O)c(O)c1 | 54.1 µM (inactive) | > 100 µM (inactive) | > 100 µM (inactive) | 19.8 µM (inactive) | 15.8 µM (inactive) | 22.9 µM (inactive) | 44.5 µM (inactive) | 22.5 µM (inactive) | 26.9 µM (inactive) | 8.93 µM (inactive) | 50.6 µM (inactive) | > 100 µM (inactive) | 20.4 µM (inactive) | 18.1 µM (inactive) | > 100 µM (inactive) | 49.5 µM (inactive) | 18.8 µM (inactive) | > 100 µM (inactive) | 17 µM (inactive) | 21.6 µM (inactive)
2 | CC1(C)CC(Nc2ccc(Nc3ccccc3)cc2)CC(C)(C)N1 | 44.1 µM (inactive) | 12 µM (inactive) | > 100 µM (inactive) | 18.4 µM (inactive) | 42.4 µM (inactive) | 34.2 µM (inactive) | 6.41 µM (inactive) | 45.9 µM (inactive) | 14.6 µM (inactive) | 16.7 µM (inactive) | 37.6 µM (inactive) | 11.5 µM (inactive) | 30.1 µM (inactive) | 21.9 µM (inactive) | 15.8 µM (inactive) | 6.97 µM (inactive) | 21.8 µM (inactive) | 15.7 µM (inactive) | 12.7 µM (inactive) | 18.1 µM (inactive)
3 | C=C1CC(Cn2ccc(=O)[nH]c2=O)(c2ccc(Cl)cc2)OC1=O (stereo not given) | 2.86 µM (inactive) | 2.07 µM (inactive) | 15 µM (inactive) | 7.1 µM (inactive) | 5.48 µM (inactive) | 16.4 µM (inactive) | 1.63 µM (inactive) | 16.9 µM (inactive) | 2.02 µM (inactive) | 1.87 µM (inactive) | 15.1 µM (inactive) | 6.64 µM (inactive) | 7.87 µM (inactive) | 4.56 µM (inactive) | 15.6 µM (inactive) | 8.47 µM (inactive) | 1.83 µM (inactive) | 13.9 µM (inactive) | 4.1 µM (inactive) | 1.78 µM (inactive)
4 | Cc1cccc(C[C@@]2(SCc3ccccc3)C(C)(C)[C@@H]3CC[C@@]2(C)C3)n1 | 15.1 µM (inactive) | 14.3 µM (inactive) | 20.4 µM (inactive) | 15.6 µM (inactive) | 13.9 µM (inactive) | 17.6 µM (inactive) | 12.9 µM (inactive) | 21.9 µM (inactive) | 14.6 µM (inactive) | 13.9 µM (inactive) | 15.2 µM (inactive) | 20 µM (inactive) | 16.5 µM (inactive) | 13.8 µM (inactive) | 23.3 µM (inactive) | 13.3 µM (inactive) | 15 µM (inactive) | 15.4 µM (inactive) | 20 µM (inactive) | 12.6 µM (inactive)
5 | CC(=O)CC1CCC(=O)/C=C/C(=O)OC(CC(C)=O)CCC(=O)/C=C/C(=O)O1 (stereo not given) | 16.1 µM (inactive) | 3.78 µM (inactive) | 20.7 µM (inactive) | 6.79 µM (inactive) | 17.5 µM (inactive) | 8.02 µM (inactive) | 1.6 µM (inactive) | 21.7 µM (inactive) | 2.23 µM (inactive) | 9.25 µM (inactive) | 12.8 µM (inactive) | 15 µM (inactive) | 19.3 µM (inactive) | 19.9 µM (inactive) | 19.3 µM (inactive) | 2.45 µM (inactive) | 1.67 µM (inactive) | 22.8 µM (inactive) | 3.2 µM (inactive) | 2.19 µM (inactive)
6 | Nc1ncc(N)c(NCC2(CO)CC(CCc3ccccc3)C2)n1 (stereo not given) | 7.94 µM (inactive) | 3.39 µM (inactive) | 12.2 µM (inactive) | 2.26 µM (inactive) | 5.13 µM (inactive) | 8.47 µM (inactive) | 0.413 µM (active) | 9.73 µM (inactive) | 1.08 µM (active) | 3.37 µM (inactive) | 12.6 µM (inactive) | 5.89 µM (inactive) | 10.5 µM (inactive) | 12.4 µM (inactive) | 2.7 µM (inactive) | 0.12 µM (active) | 9.98 µM (inactive) | 11.3 µM (inactive) | 9.75 µM (inactive) | 0.393 µM (active)
